Source: ChEMBL document CHEMBL1138534, “Cellular effects of reversed amidines on Trypanosoma cruzi” (Antimicrob Agents Chemother, 2007)
The source made the active and inactive calls. No cut-off for these calls is given here.

Columns and labels:
[1] = test system: Trypanosoma cruzi; assay: Antitrypanosomal activity against Trypanosoma cruzi Y amastigotes after 24 hrs by light microscope; assay type: functional, organism-based
[2] = test system: Trypanosoma cruzi; assay: Antitrypanosomal activity against Trypanosoma cruzi Y bloodstream trypomastigotes after 24 hrs by light microscope; assay type: functional, organism-based
[3] = test system: Trypanosoma cruzi; assay: Antitrypanosomal activity against Trypanosoma cruzi Y amastigotes assessed as disorganization of subpellicular mitochondria at IC50 after 24 hrs by transmission electron microscopy; assay type: functional, organism-based
[4] = test system: Trypanosoma cruzi; assay: Antitrypanosomal activity against Trypanosoma cruzi Y bloodstream trypomastigotes assessed as parasite death at 0.014 uM after 24 hrs by light microscope; assay type: functional
[5] = test system: Trypanosoma cruzi; assay: Antitrypanosomal activity against Trypanosoma cruzi Y bloodstream trypomastigotes assessed as parasite death at 3.5 uM after 24 hrs by light microscope; assay type: functional
[6] = test system: Trypanosoma cruzi; assay: Antitrypanosomal activity against Trypanosoma cruzi Y bloodstream trypomastigotes assessed as parasite lysis at 3.5 uM after 24 hrs by light microscope; assay type: functional
[7] = test system: Trypanosoma cruzi; assay: Antitrypanosomal activity against Trypanosoma cruzi Y bloodstream trypomastigotes assessed as reduction in mitochondrial membrane potential at IC50 after 24 hrs by flow cytometry; assay type: functional; set-up: scale not given: the % may be the effect or the level left
[8] = test system: Trypanosoma cruzi; assay: Antitrypanosomal activity against Trypanosoma cruzi Y amastigotes assessed as intense vesicular profile in flageller pocket at IC50 after 24 hrs by transmission electron microscopy; assay type: functional, organism-based
[9] = test system: Trypanosoma cruzi; assay: Antitrypanosomal activity against Trypanosoma cruzi Y amastigotes assessed as swelling and electrodense mitochondria at IC50 after 24 hrs by transmission electron microscopy; assay type: functional, organism-based
[10] = test system: Trypanosoma cruzi; assay: Antitrypanosomal activity against Trypanosoma cruzi Y bloodstream trypomastigotes assessed as microtubule axoneme structure after 24 hrs by transmission electron micrograph; assay type: functional, organism-based
[11] = test system: Trypanosoma cruzi; assay: Antitrypanosomal activity against Trypanosoma cruzi Y bloodstream trypomastigotes assessed as alteration in mitochondria-kinetoplast complex after 24 hrs by transmission electron micrograph; assay type: functional, organism-based
[12] = test system: Trypanosoma cruzi; assay: Antitrypanosomal activity against Trypanosoma cruzi Y bloodstream trypomastigotes assessed as parasite death at 32 uM after 2 hrs by light microscope; assay type: functional
[13] = test system: Trypanosoma cruzi; assay: Antitrypanosomal activity against Trypanosoma cruzi Y bloodstream trypomastigotes assessed as parasite death at 32 uM after 24 hrs by light microscope; assay type: functional
[14] = test system: Trypanosoma cruzi; assay: Antitrypanosomal activity against Trypanosoma cruzi Y bloodstream trypomastigotes assessed as intracellular dilated membrane profile after 24 hrs by transmission electron micrograph; assay type: functional, organism-based
[15] = test system: Trypanosoma cruzi; assay: Antitrypanosomal activity against Trypanosoma cruzi Y bloodstream trypomastigotes assessed as alteration in microtubule organization after 24 hrs by transmission electron micrograph; assay type: functional, organism-based
[16] = test system: Trypanosoma cruzi; assay: Antitrypanosomal activity against Trypanosoma cruzi Y bloodstream trypomastigotes assessed as swelling in mitochondria and kinetoplast after 24 hrs by transmission electron micrograph; assay type: functional, organism-based
[17] = test system: Trypanosoma cruzi; assay: Antitrypanosomal activity against Trypanosoma cruzi Y amastigotes assessed as vacuolization and loss of cytoplasm components at IC50 after 24 hrs by transmission electron microscopy; assay type: functional, organism-based
[18] = test system: Trypanosoma cruzi; assay: Antitrypanosomal activity against Trypanosoma cruzi Y amastigotes assessed as disorganization of kinetoplast at IC50 after 24 hrs by transmission electron microscopy; assay type: functional, organism-based
[19] = test system: Trypanosoma cruzi; assay: Antitrypanosomal activity against Trypanosoma cruzi Y amastigotes assessed as alteration in nuclear morphology at IC50 after 24 hrs by transmission electron microscopy; assay type: functional, organism-based
[20] = test system: Trypanosoma cruzi; assay: Antitrypanosomal activity against Trypanosoma cruzi Y bloodstream trypomastigotes at 1.18 uM after 2 hrs by light microscope; assay type: functional
[21] = test system: Trypanosoma cruzi; assay: Antitrypanosomal activity against Trypanosoma cruzi Y bloodstream trypomastigotes assessed as alteration in nuclear morphology after 24 hrs by transmission electron micrograph; assay type: functional, organism-based

Cc1ccc(C(=N)Nc2ccc(-c3ccc(-c4ccc(NC(=N)c5ccc(C)cn5)cc4OC(C)C)o3)c(OC(C)C)c2)nc1
IC50 [1]: 1140 nM | IC50 [2]: 15 nM | Activity [3]: Active | Activity [4]: 49% | Activity [5]: 95% | Activity [6]: 50% | Activity [7]: 55%

Cc1cc(NC(=N)c2ccccn2)ccc1-c1ccc(-c2ccc(NC(=N)c3ccccn3)cc2C)o1
IC50 [1]: 240 nM | IC50 [2]: 450 nM | Activity [5]: 95% | Activity [6]: 55% | Activity [7]: 54% | Activity [8]: Active | Activity [9]: Active

COc1cc(NC(=N)N)ccc1-c1ccc(-c2ccc(NC(=N)N)cc2OC)o1
Activity [10]: Active | Activity [11]: Active | IC50 [1]: > 10600 nM | IC50 [2]: 19400 nM | Activity [12]: 23% | Activity [13]: 84% | Activity [14]: Active | Activity [15]: Active | Activity [7]: inactive | Activity [16]: Active

N=C(Nc1ccc(-c2cc(-c3ccccc3)c(-c3ccc(NC(=N)c4ccccn4)cc3)o2)cc1)c1ccccn1
Activity [17]: Active | Activity [10]: Active | IC50 [1]: 8.6 nM | IC50 [2]: 90 nM | Activity [18]: Active | Activity [19]: Active | Activity [20]: 55% | Activity [5]: 100% | Activity [21]: Active | Activity [6]: Active | Activity [7]: 59% | Activity [8]: Active | Activity [16]: Active
